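48-hour exposure; five concentrations; linearly interpolated endpoints. GI50 is the concentration that inhibits growth by half. The concentration for full growth arrest is given as TGI.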
How the values were obtained:
Experiment in all cases: DTP human tumour cell line panel, 48 h
NCI-H23 lung = tested on: NCI-H23 lung
NCI-H460 lung = tested on: NCI-H460 lung
NCI-H522 lung = tested on: NCI-H522 lung
NCI/ADR-RES ovarian = tested on: NCI/ADR-RES ovarian
OVCAR-3 ovarian = tested on: OVCAR-3 ovarian
OVCAR-4 ovarian = tested on: OVCAR-4 ovarian
OVCAR-5 ovarian = tested on: OVCAR-5 ovarian
OVCAR-8 ovarian = tested on: OVCAR-8 ovarian
PC-3 prostate = tested on: PC-3 prostate
RPMI-8226 leukemia = tested on: RPMI-8226 leukemia
RXF 393 renal = tested on: RXF 393 renal
SF-268 CNS = tested on: SF-268 CNS
SF-295 CNS = tested on: SF-295 CNS
SF-539 CNS = tested on: SF-539 CNS
SK-MEL-2 melanoma = tested on: SK-MEL-2 melanoma
SK-MEL-28 melanoma = tested on: SK-MEL-28 melanoma
SK-MEL-5 melanoma = tested on: SK-MEL-5 melanoma
SK-OV-3 ovarian = tested on: SK-OV-3 ovarian
SN12C renal = tested on: SN12C renal
SNB-19 CNS = tested on: SNB-19 CNS
SNB-75 CNS = tested on: SNB-75 CNS
SR leukemia = tested on: SR leukemia
SW-620 colon = tested on: SW-620 colon
T-47D breast = tested on: T-47D breast
TK-10 renal = tested on: TK-10 renal
U251 CNS = tested on: U251 CNS
UACC-257 melanoma = tested on: UACC-257 melanoma
UACC-62 melanoma = tested on: UACC-62 melanoma
UO-31 renal = tested on: UO-31 renal

`Cc1nc2cc(-c3nn(C(C)C)c4ncnc(N)c34)ccc2o1` gave a GI50 (NCI-H23 lung) of 41.5 nM, a TGI (NCI-H23 lung) of over 7 µM and a GI50 (NCI-H460 lung) of 5.89 nM. It also gave a TGI (NCI-H460 lung) of over 10 µM, a GI50 (NCI-H522 lung) of 3.64 nM and a TGI (NCI-H522 lung) of 787 nM. For the same compound, the GI50 (NCI/ADR-RES ovarian) was 26.7 nM, the TGI (NCI/ADR-RES ovarian) was 537 nM and the GI50 (OVCAR-3 ovarian) was 12.5 nM. It also gave a TGI (OVCAR-3 ovarian) of 627 nM, a GI50 (OVCAR-4 ovarian) of 6.46 nM and a TGI (OVCAR-4 ovarian) of 97 nM. For the same compound, the GI50 (OVCAR-5 ovarian) was 14.9 nM, the TGI (OVCAR-5 ovarian) was 2180 nM and the GI50 (OVCAR-8 ovarian) was 19.8 nM. It also gave a TGI (OVCAR-8 ovarian) of 431 nM, a GI50 (PC-3 prostate) of 6.5 nM and a TGI (PC-3 prostate) of 598 nM. For the same compound, the GI50 (RPMI-8226 leukemia) was 3.42 nM, the TGI (RPMI-8226 leukemia) was 385 nM and the GI50 (RXF 393 renal) was 6.62 nM. The TGI (RXF 393 renal) was 104 nM, the GI50 (SF-268 CNS) was 14.3 nM and the TGI (SF-268 CNS) was 1840 nM. It also gave a GI50 (SF-295 CNS) of 6.99 nM, a TGI (SF-295 CNS) of 78.1 nM and a GI50 (SF-539 CNS) of 22.7 nM. The TGI (SF-539 CNS) was 169 nM, the GI50 (SK-MEL-2 melanoma) was 21.3 nM and the TGI (SK-MEL-2 melanoma) was 137 nM. For the same compound, the GI50 (SK-MEL-28 melanoma) was 6.62 nM, the TGI (SK-MEL-28 melanoma) was 125 nM and the GI50 (SK-MEL-5 melanoma) was 15.8 nM. For the same compound, the TGI (SK-MEL-5 melanoma) was 103 nM, the GI50 (SK-OV-3 ovarian) was 4.65 nM and the TGI (SK-OV-3 ovarian) was 44.6 nM. The GI50 (SN12C renal) was 9.83 nM, the TGI (SN12C renal) was over 10 µM and the GI50 (SNB-19 CNS) was 41.2 nM. For the same compound, the TGI (SNB-19 CNS) was over 10 µM, the GI50 (SNB-75 CNS) was 3.09 nM and the TGI (SNB-75 CNS) was 39.1 nM. It also gave a GI50 (SR leukemia) of 16.8 nM, a TGI (SR leukemia) of 8.07 µM and a GI50 (SW-620 colon) of 36.6 nM. For the same compound, the TGI (SW-620 colon) was over 10 µM, the GI50 (T-47D breast) was 1.34 nM and the TGI (T-47D breast) was 15.8 nM. It also gave a GI50 (TK-10 renal) of 6.25 nM, a TGI (TK-10 renal) of 166 nM and a GI50 (U251 CNS) of 19.4 nM. It also gave a TGI (U251 CNS) of 2350 nM, a GI50 (UACC-257 melanoma) of 11.1 nM and a TGI (UACC-257 melanoma) of 112 nM. The GI50 (UACC-62 melanoma) was 3.93 nM, the TGI (UACC-62 melanoma) was 44 nM and the GI50 (UO-31 renal) was 2.11 nM. The TGI (UO-31 renal) was 61.1 nM.

— PubChem BioAssay (NCI)
